Test system: MDA-MB-435 cells
Assay: orthotopic human breast cancer mouse model, continuous 2-DG by intraperitoneal osmotic pump
Assay type: in vivo
Conditions: 19 μg/ml/hr or 30 mg/kg per 24 hrs continuously for 4 weeks; intraperitoneal osmotic pump filled with 328 mg/ml; MDA-MB-435 orthotopic in CD-1 nude mice
Procedure: 2×10^6 MDA-MB-435 cells were injected orthotopically to CD-1 nude mice. After two weeks, osmotic pumps (Model 1004, Alzet Inc.) were inserted into the peritoneal cavity under general anesthesia. In one group of animals (n=9), the pumps contained 0.9% NaCl, while in the other group (n=5), the pumps were filled with 2-DG at a concentration of 328 mg/ml. Mice were weighed, and tumor measurements were taken by caliper three times weekly. Tumor measurements were converted to tumor volume by using the formula W×L^2/2. Mice were killed when either W or L exceeded 15 mm. At sacrifice, mice were weighed, and tumors were excised and checked histologically for verification of tumor growth.

SMILES: O=CC[C@@H](O)[C@H](O)[C@H](O)CO [2-DG, 2-deoxy-D-glucose]
- tumor burden (tumor volume by caliper, W×L^2/2): effectively reduces tumor burden
